From patent publication US8404650B2, “Methods of treating cancer with doxazolidine and prodrugs thereof” (priority 2005, dated 2013)
Where two headings read alike, the source gives them in different places.

How the values were obtained:
cancer cells = details: background statement; cited from earlier work
[1] = Hydrolysis of Doxaz to Doxorubicin in buffers (HPLC); format: physicochemical
Description: Doxaz stability in DMSO. Doxaz (22 mg, 40 μmol) was dissolve in 1 mL of DMSO-d6 (stored over activated 4 Å molecular sieves) and analyzed for purity by 500 MHz ^1H NMR. After a 10× dilution with DMSO to a concentration of 4 mM, the stability of Doxaz was then followed by HPLC, observing the relative peak area of the Doxaz peak at 6.6 min with constant injection volume. Doxaz hydrolyzed at a rate of <2% per day in DMSO. Doxaz stability in buffers. HPLC buffer, pH 7.4, 20 mM TEAA, was used for the measurement of hydrolysis of Doxaz. The buffer's pH was adjusted as needed with either triethyl amine or acetic acid to pH 10.4, 9.0, 6.0 and 5.0 with one sample left unchanged at pH 7.4. A volume of 1950 μL of each of these solutions was added to a conical vial and then cooled to 14° C. 50 μL of a 4 mM solution of Doxaz was added to each tube and hydrolysis was followed by HPLC with injections every 10 min. The pH of the buffers was measured before the addition of drug and 1.5 h after the start of hydrolysis.
Both DoxF and Doxaz are relatively stable in dry chloroform and dry DMSO over a period of days. In dry DMSO, Doxaz hydrolyzes to Doxorubicin at less than 2% per day at ambient temperature. In aqueous medium, DoxF is very hydrolytically unstable with respect to formation of Doxaz, and Doxaz is hydrolytically unstable with respect to formation of Doxorubicin. […] Consequently, HPLC was used to monitor the kinetics of hydrolysis of Doxaz to Doxorubicin at 14° C. as a function of pH. […] The hydrolysis was too rapid to measure the rate at 37° C. Extrapolation using the rough rule that the rate will double for every 10° C. increase in temperature, gives an estimation of the half-life at pH 7.4 and 37° C. of 3 to 4 min. The rate constant increases with decreasing pH except for the transition from pH 10.4 to pH 9.0 where the rate constant decreases slightly. At pH 10.5 the solution appears purple, indicative of deprotonation at one of the hydroquinone functional groups. […] The higher rate at low pH is consistent with acid catalysis, probably assisting hydrolytic ring opening as the slow step. […]

liver cancer = details: circumstantial data; treatment of liver cancer; cited from earlier work
[2] = Uptake of pentyl carbamate relative to Dox, flow cytometry, with and without fetal bovine serum; format: cell-based; details: 10% fetal bovine serum, flow cytometry, 3 h
Description: Uptake of the pentyl carbamate relative to uptake of Dox was measured by flow cytometry, monitoring fluorescence of the Dox fluorophore as a measure of drug in cells. The measurements were performed over a period of 3 h in the presence and absence of fetal bovine serum, and the results are shown in FIG. 4. […] Further, the presence of 10% fetal bovine serum decreased the uptake of doxorubicin and the pentyl carbamate by about 25%. The more rapid uptake of the pentyl carbamate in the presence and absence of serum probably reflects its increased hydrophobicity relative to that of doxorubicin which is a cation at physiological pH. Increased hydrophobicity may also be the explanation for the effect of serum on the uptake of the carbamate; namely, the carbamate binds to serum proteins reducing drug uptake.

human plasmin = human plasmin (Homo sapiens, UniProt P00747); assay: Plasmin activation of prodrug and release of Doxaz (HPLC); format: biochemical; details: human, human plasmin; 37° C.; read-out: Half-life in the presence of plasmin
Sequence of human plasmin (P00747 581-810 limits assumed): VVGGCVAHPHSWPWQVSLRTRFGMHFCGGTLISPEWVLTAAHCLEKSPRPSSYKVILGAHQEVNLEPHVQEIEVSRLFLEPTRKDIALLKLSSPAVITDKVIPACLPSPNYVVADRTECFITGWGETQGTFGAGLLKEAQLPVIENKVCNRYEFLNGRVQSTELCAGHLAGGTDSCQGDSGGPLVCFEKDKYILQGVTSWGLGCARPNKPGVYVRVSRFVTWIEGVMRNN
Sequence of human plasmin (P00747 97-580 partner limits assumed): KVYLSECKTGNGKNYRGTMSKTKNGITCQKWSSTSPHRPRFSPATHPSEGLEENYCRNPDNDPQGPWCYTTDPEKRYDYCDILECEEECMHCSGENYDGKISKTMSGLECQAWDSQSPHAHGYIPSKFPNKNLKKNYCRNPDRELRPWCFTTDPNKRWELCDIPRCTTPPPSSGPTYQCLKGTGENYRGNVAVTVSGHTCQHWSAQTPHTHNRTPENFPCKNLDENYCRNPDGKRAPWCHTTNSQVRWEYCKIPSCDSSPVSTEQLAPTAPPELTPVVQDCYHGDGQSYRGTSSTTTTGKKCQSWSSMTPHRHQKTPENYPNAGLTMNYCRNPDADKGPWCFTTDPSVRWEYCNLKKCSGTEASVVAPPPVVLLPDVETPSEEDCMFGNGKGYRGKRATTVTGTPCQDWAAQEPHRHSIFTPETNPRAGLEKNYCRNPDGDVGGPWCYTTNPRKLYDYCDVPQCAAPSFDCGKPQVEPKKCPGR
Description: Both Formulas IV and V were incubated with 15 μg/ml human plasmin and monitored by HPLC at 37° C. Just 4 min after the addition of plasmin, 20 percent of compound 10 was converted to Doxaz and roughly 50% of that Doxaz had hydrolyzed to Doxorubicin. Within 23 minutes, nearly all of the prodrug was converted to Doxaz and subsequently hydrolyzed to Doxorubicin.

Water solubility = format: physicochemical; details: as di-cation

COc1cccc2c1C(=O)c1c(O)c3c(c(O)c1C2=O)C[C@@](O)(C(=O)CO)C[C@@H]3OC1CC2C(OCN2CN2COC3C(C)OC(O[C@H]4C[C@](O)(C(=O)CO)Cc5c(O)c6c(c(O)c54)C(=O)c4c(OC)cccc4C6=O)CC32)C(C)O1 (some centres unmarked) [DoxF, Doxoform, reference compound]
Anti-tumor activity above Doxorubicin (cancer cells): approximately 100 fold

COc1cccc2c1C(=O)c1c(O)c3c(c(O)c1C2=O)C[C@@](O)(C(=O)CO)C[C@@H]3O[C@H]1C[C@@H]2NCO[C@@H]2[C@H](C)O1 [Doxaz, Doxazolidine]
half-life at 100 µM ([1]; 20 mM TEAA buffer, pH 7.4, aqueous media, pH 7.4, 37° C., extrapolated from 14° C. (rate doubles per 10° C.), read-out: Half-life for hydrolysis of Doxaz to Doxorubicin at 37° C.): 3 to 4 min | half-life at 100 µM ([1]; 20 mM TEAA buffer, pH 7.5, pH 7.5, 14° C., 20 mM TEAA buffer, read-out: Half-life for hydrolysis of Doxaz to Doxorubicin at 14° C.): 16 min | half-life at 100 µM ([1]; 20 mM triethylammonium acetate (TEAA) buffer, pH 7.4, after prodrug activation near a tumor / in vivo, read-out: Half-life of Doxaz (conversion to Doxorubicin) after release): ~3 min | Improvement relative to Doxorubicin in a clinical trial (liver cancer): 75%

COc1cccc2c1C(=O)c1c(O)c3c(c(O)c1C2=O)C[C@@](O)(C(=O)CO)C[C@@H]3O[C@H]1C[C@H](N)[C@H](O)[C@H](C)O1 [Doxorubicin, reference compound]
Decrease of uptake by 10% fetal bovine serum [2]: about 25%

COc1cccc2c1C(=O)c1c(O)c3c(c(O)c1C2=O)C[C@@](O)(C(=O)CO)C[C@@H]3O[C@H]1C[C@H]2[C@H](OCN2C(=O)OCc2ccc(NC(=O)[C@H](CCCCN)NC(=O)[C@H](Cc3ccccc3)NC(=O)[C@@H](C)N)cc2)[C@H](C)O1 [Formula IV, D-Ala-L-Phe-L-Lys-p-aminobenzyloxycarbonyl-Doxaz]
half-life (human plasmin): ~6 min | Water solubility (Water solubility): excellent water solubility
